In patent publication US11339130B1 (Blade Therapeutics, Inc., priority 2016, dated 2022):

How the values were obtained:
Format in all cases: biochemical
[1] = biological target: T1, Human Calpain 1/NS1 (Homo sapiens, UniProt P07384); assay: Calpain inhibition continuous fluorescence (FRET) assay, Human Calpain 1/NS1; details: Column A; read-out: Human Calpain 1/NS1 IC50
T1 sequence (P07384 1-714): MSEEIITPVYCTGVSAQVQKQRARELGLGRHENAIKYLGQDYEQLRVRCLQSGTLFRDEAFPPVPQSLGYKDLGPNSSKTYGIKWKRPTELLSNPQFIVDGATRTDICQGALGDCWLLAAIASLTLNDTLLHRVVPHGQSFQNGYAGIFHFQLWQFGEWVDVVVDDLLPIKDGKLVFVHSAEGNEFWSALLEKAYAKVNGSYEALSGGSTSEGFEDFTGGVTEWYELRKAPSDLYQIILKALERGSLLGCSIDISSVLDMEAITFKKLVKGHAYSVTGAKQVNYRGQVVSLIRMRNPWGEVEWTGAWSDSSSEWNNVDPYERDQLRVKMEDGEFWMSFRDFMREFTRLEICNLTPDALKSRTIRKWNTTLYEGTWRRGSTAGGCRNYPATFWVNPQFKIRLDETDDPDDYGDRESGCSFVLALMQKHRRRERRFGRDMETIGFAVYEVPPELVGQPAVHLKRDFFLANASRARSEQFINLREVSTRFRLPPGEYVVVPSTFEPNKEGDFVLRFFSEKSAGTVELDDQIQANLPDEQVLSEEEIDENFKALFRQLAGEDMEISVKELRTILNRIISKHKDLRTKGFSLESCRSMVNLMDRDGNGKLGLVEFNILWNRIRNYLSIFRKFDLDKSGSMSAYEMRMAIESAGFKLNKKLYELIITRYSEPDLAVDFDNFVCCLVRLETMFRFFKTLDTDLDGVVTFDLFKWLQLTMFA
T1 sequence (P04632 1-268 partner): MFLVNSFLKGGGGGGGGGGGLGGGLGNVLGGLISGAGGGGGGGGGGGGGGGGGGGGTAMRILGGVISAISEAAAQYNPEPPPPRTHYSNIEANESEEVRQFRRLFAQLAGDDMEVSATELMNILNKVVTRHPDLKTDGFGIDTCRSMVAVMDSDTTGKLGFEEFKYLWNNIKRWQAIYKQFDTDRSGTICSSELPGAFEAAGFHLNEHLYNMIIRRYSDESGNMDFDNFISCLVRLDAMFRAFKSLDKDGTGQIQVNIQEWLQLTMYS
Method in brief: (§1)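 Continuous FRET read (ex 490/em 520 nm, 10 min) of calpain 1, 2 or 9 cleaving an internally quenched 5-FAM peptide, triggered by substrate with CaCl2 after enzyme–inhibitor incubation at ambient 25 °C, pH 7.5 Tris/NaCl/DTT buffer. IC50 from initial rates (1-5 min) via 4-parameter fit.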

[2] = biological target: T2, Human Calpain 2/NS1 (Homo sapiens, UniProt P17655); assay: Calpain inhibition continuous fluorescence (FRET) assay, Human Calpain 2/NS1; details: Column B; read-out: Human Calpain 2/NS1 IC50
T2 sequence (P17655 1-700): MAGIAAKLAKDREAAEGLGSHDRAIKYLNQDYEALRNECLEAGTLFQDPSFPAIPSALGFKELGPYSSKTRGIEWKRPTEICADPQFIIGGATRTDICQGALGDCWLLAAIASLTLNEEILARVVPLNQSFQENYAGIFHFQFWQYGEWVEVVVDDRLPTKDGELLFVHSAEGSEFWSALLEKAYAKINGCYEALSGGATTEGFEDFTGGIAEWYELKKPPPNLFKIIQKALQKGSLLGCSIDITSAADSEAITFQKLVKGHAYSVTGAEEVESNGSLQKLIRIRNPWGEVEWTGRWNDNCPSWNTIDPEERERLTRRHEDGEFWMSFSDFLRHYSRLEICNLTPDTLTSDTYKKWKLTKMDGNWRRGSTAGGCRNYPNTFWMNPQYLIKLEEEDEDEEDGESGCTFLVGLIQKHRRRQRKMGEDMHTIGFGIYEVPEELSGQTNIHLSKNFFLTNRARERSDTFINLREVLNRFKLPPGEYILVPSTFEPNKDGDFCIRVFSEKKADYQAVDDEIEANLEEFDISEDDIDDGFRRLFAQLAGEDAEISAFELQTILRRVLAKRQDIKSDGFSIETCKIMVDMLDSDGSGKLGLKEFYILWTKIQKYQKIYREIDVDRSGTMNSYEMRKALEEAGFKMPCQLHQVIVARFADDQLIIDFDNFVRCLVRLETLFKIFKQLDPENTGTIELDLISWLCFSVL
T2 sequence (P04632 1-268 partner): T1 sequence (P04632 1-268 partner)
Method in brief: as §1

[3] = biological target: T3, Human Calpain 9/NS1 (Homo sapiens, UniProt O14815); assay: Calpain inhibition continuous fluorescence (FRET) assay, Human Calpain 9/NS1; details: Column C; read-out: Human Calpain 9/NS1 IC50
T3 sequence (O14815 1-690): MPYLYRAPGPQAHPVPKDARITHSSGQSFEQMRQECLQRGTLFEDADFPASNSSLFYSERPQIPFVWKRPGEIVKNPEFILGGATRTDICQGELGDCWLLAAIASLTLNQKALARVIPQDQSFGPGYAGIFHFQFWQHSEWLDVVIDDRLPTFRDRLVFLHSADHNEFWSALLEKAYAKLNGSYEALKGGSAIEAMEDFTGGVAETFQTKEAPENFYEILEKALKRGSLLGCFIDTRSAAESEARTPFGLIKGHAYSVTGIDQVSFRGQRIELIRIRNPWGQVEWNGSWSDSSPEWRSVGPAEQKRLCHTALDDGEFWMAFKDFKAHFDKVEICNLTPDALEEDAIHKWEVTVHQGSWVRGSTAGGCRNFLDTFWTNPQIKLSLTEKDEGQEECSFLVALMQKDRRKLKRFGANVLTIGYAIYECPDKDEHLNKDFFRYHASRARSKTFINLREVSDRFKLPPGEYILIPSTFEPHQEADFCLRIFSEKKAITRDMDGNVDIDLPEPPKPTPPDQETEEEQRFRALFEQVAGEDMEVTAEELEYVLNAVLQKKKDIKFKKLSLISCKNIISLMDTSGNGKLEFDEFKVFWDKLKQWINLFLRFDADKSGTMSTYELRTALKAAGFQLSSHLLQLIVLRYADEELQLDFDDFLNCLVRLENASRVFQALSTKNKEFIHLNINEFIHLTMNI
T3 sequence (P04632 1-268 partner): T1 sequence (P04632 1-268 partner)
Method in brief: as §1

Compound	IC50 [1] [µM]	IC50 [2] [µM]	IC50 [3] [µM]
Cc1cc(C(=O)N[C@@H](Cc2ccccc2)C(=O)C(N)=O)nn1-c1nc(-c2ccccc2)cs1 [Compound 80, (S)—N-(4-amino-3,4-dioxo-1-phenylbutan-2-yl)-5-methyl-1-(4-phenylthiazol-2-yl)-1H-pyrazole-3-carboxamide]	3 to 10	< 3	3 to 10
O=C(NC1CC1)C(=O)[C@H](Cc1ccccc1)NC(=O)c1scnc1-n1ncc2ccccc21 [Compound 86, (S)—N-(4-(cyclopropylamino)-3,4-dioxo-1-phenylbutan-2-yl)-4-(1H-indazol-1-yl)thiazole-5-carboxamide]	< 3	< 3	< 3
O=C(NC1CC1)C(=O)[C@H](Cc1ccccc1)NC(=O)c1scnc1-n1cc(-c2ccccc2)cn1 [Compound 87, (S)—N-(4-(cyclopropylamino)-3,4-dioxo-1-phenylbutan-2-yl)-4-(4-phenyl-1H-pyrazol-1-yl)thiazole-5-carboxamide]	> 10	< 3	< 3
NC(=O)C(=O)[C@H](Cc1ccccc1)NC(=O)c1cncn1-c1cc(-c2ncco2)ccn1 [Compound 88, (S)—N-(4-amino-3,4-dioxo-1-phenylbutan-2-yl)-1-(4-(oxazol-2-yl)pyridin-2-yl)-1H-imidazole-5-carboxamide]	< 3	< 3	< 3
O=C(NC1CC1)C(=O)[C@H](Cc1ccccc1)NC(=O)c1cncn1-c1ccc(-c2ncco2)cn1 [Compound 89, (S)—N-(4-(cyclopropylamino)-3,4-dioxo-1-phenylbutan-2-yl)-1-(5-(oxazol-2-yl)pyridin-2-yl)-1H-imidazole-5-carboxamide]	< 3	< 3	3 to 10
C=CCOc1ccc(C[C@@H](C=O)NC(=O)c2cc(C)nn2-c2ccccn2)cc1 [Compound 93, (S)—N-(1-(4-(allyloxy)phenyl)-3-oxopropan-2-yl)-3-methyl-1-(pyridin-2-yl)-1H-pyrazole-5-carboxamide]	< 3	< 3	< 3
Cc1cc(C)cc(C[C@H](NC(=O)c2c(C)noc2-c2ccccc2)C(=O)C(N)=O)c1 [Compound 97, (S)—N-(4-amino-1-(3,5-dimethylphenyl)-3,4-dioxobutan-2-yl)-3-methyl-5-phenylisoxazole-4-carboxamide]	< 3	< 3	< 3
Cc1noc(-c2ccccc2)c1C(=O)N[C@@H](Cc1ccccc1)C(=O)C(=O)NCc1ccc(Cl)c(Cl)c1 [Compound 101, (S)—N-(4-((3,4-dichlorobenzyl)amino)-3,4-dioxo-1-phenylbutan-2-yl)-3-methyl-5-phenylisoxazole-4-carboxamide]	> 10	> 10	> 10
O=C[C@H](Cc1ccccc1)NC(=O)c1cncn1-c1n[nH]c2ccccc12 [Compound 102, (S)-1-(1H-indazol-3-yl)-N-(1-oxo-3-phenylpropan-2-yl)-1H-imidazole-5-carboxamide]	< 3	< 3	< 3
NC(=O)C(=O)[C@H](Cc1ccccc1)NC(=O)c1occc1-c1ccccc1 [Compound 104, (S)—N-(4-amino-3,4-dioxo-1-phenylbutan-2-yl)-3-phenylfuran-2-carboxamide]	< 3	< 3	< 3
Cc1cc(C(=O)N[C@@H](Cc2ccccc2)C(=O)C(N)=O)n(-c2cccc3ncccc23)n1 [Compound 108, (S)—N-(4-amino-3,4-dioxo-1-phenylbutan-2-yl)-3-methyl-1-(quinolin-5-yl)-1H-pyrazole-5-carboxamide]	< 3	< 3	< 3

Results, then the compound that gave them:

IC50 [1] [µM]	IC50 [2] [µM]	IC50 [3] [µM]	Compound
< 3	< 3	< 3	Cc1cc(C(=O)N[C@@H](Cc2ccccc2)C(=O)C(=O)NC2CC2)n(-c2cnccn2)n1 [Compound 85, (S)—N-(4-(cyclopropylamino)-3,4-dioxo-1-phenylbutan-2-yl)-3-methyl-1-(pyrazin-2-yl)-1H-pyrazole-5-carboxamide]
< 3	< 3	3 to 10	O=C[C@H](Cc1ccccc1)NC(=O)c1cncn1-c1nc2ccccc2[nH]1 [Compound 90, (S)-1-(1H-benzo[d]imidazol-2-yl)-N-(1-oxo-3-phenylpropan-2-yl)-1H-imidazole-5-carboxamide]
3 to 10	< 3	3 to 10	O=C[C@H](Cc1ccccc1)NC(=O)c1cncs1 [Compound 91, (S)—N-(1-oxo-3-phenylpropan-2-yl)thiazole-5-carboxamide]
3 to 10	3 to 10	< 3	O=C[C@H](Cc1ccccc1)NC(=O)c1cccc2nc(-c3ccccc3)[nH]c12 [Compound 92, (S)—N-(1-oxo-3-phenylpropan-2-yl)-2-phenyl-1H-benzo[D]imidazole-7-carboxamide]
< 3	< 3	< 3	Cn1nc(-c2ccccc2)c(C(=O)N[C@@H](Cc2ccccc2)C(=O)C(N)=O)c1Cl [Compound 94, (S)—N-(4-amino-3,4-dioxo-1-phenylbutan-2-yl)-5-chloro-1-methyl-3-phenyl-1H-pyrazole-4-carboxamide]
< 3	< 3	< 3	Cc1nsc(-c2ccccc2)c1C(=O)N[C@@H](Cc1ccccc1)C(=O)C(N)=O [Compound 96, (S)—N-(4-amino-3,4-dioxo-1-phenylbutan-2-yl)-3-methyl-5-phenylisothiazole-4-carboxamide]
< 3	< 3	< 3	Cc1noc(-c2ccccc2)c1C(=O)N[C@@H](Cc1ccccc1)C(=O)C(=O)NC1CC1 [Compound 100, (S)—N-(4-(cyclopropylamino)-3,4-dioxo-1-phenylbutan-2-yl)-3-methyl-5-phenylisoxazole-4-carboxamide]
< 3	< 3	< 3	NC(=O)C(=O)[C@H](Cc1ccccc1)NC(=O)c1scnc1-c1ccccn1 [Compound 109, (S)—N-(4-amino-3,4-dioxo-1-phenylbutan-2-yl)-4-(pyridin-2-yl)thiazole-5-carboxamide]
